A short description of data set [1]: Quercetin release profile. The data set is classed as physicochemical. Particulars: pH 6.8 buffer, Que 0.07 mg/mL. How it is done:
In the measurement of drug release profiles, maximum Que concentration was fixed at 0.07 mg/mL in pH 6.8 buffer solution. The UV-vis absorption of the solution was measured and plotted vs. time. Release profiles were determined.

The nature of data set [2]: Ellagic acid release profile. The data set is classed as physicochemical. Particulars: pH 6.8 buffer.
The conditions of data set [3]: cited from earlier work.
The conditions of data set [4]: pH 6.8.
For data set [5] the following is noted: pH 6.8; cited from earlier work.
Data set [6] is described as follows: Theoretical amorphous solubility with moisture sorption effect. The data set is classed as physicochemical. Conditions: 37° C. An excerpt:
Amorphous solubility can be approximated by estimating the free energy difference between crystalline and amorphous forms using the Hoffman equation: […]
The ratio of amorphous and crystalline solubility (Samorphous/Scrystalline) is then estimated from the free energy difference (ΔGa→σ) calculated from heat of fusion (ΔHf) and melting temperature (Tm) of the crystalline material determined from DSC analysis, as well as the experimentally determined crystalline solubility:
See Murdande, S. B., Pikal, M. J. Shanker, R. M. & Bogner, R. H., “Solubility Advantage of amorphous pharmaceuticals: I. A thermodynamic analysis,” J. Pharm. Sci., 99(3): 1254-1264, (2009) (“Murdande I”) and Murdande, S. B., Pikal, M. J. Shanker, R. M. & Bogner, R. H., “Solubility Advantage of amorphous pharmaceuticals: II. Application of quantitative thermodynamic relationships for prediction of solubility enhancement in structurally diverse insoluble pharmaceuticals,” Pharm. […]
The moisture sorption profile of amorphous ritonavir was determined at 37° C. using a TA Q5000 dynamic vapor sorption analyzer (TA Instruments, New Castle, Del.) equipped with a humidity controlled chamber and an ultrasensitive thermobalance. […] Subsequently, the moisture sorption isotherm was measured by equilibrating the sample under controlled relative humidity (RH) ranging from 5% RH to 95% RH, in 10% RH intervals. […]

A short description of data set [7]: Nucleation-induction time of ritonavir from supersaturated solution. The data set is classed as physicochemical. Conditions: initial 20 μg/mL, no polymer, pH 6.8, 37° C. How it is done:
The period between the generation of supersaturation and initiation of nucleation was determined by monitoring the absorbance at 280 nm using an ultraviolet/visible spectrometer, fiber optic coupled with a dip probe (SI Photonics® Tucson, Ariz.). Wavelength scans were acquired every 45 seconds. Precipitation was characterized by an increased extinction at 280 nm wavelength. A supersaturated solution of ritonavir was generated by adding 0.4 mL of ritonavir dissolved in methanol at a concentration 4 mg/mL, to 80 mL sodium phosphate buffer, pH 6.8, at 37° C., providing an initial solution concentration of ritonavir of 20 μg/mL. The drug of compositions of the invention can be present in any amount ranging from about 0-100 μg/mL, such as from about 5-10 μg/mL, or from 15-20 μg/mL, or from 25-30 μg/mL, or from 35-50 μg/mL, or from 55-75 μg/mL, or from 80-90 μg/mL. Depending on the drug compound and the types and amounts of polymers used, the most preferred concentration of drug in the compositions ranges from about 5-25 μg/mL. A syringe pump (Harvard Apparatus, Holliston, Mass.) was used to control the rate of addition of organic solution of ritonavir to buffer solution; the flow rate was 0.20 mL/min. […] The ability of the various polymers to affect the nucleation of ritonavir was evaluated using a polymer concentration of 5 μg/mL. […]

The nature of data set [8]: Crystal growth rate of ritonavir (seeded desupersaturation). The data set is classed as physicochemical.
A short description of data set [9]: Ritonavir seed crystal size and morphology by SEM. The data set is classed as physicochemical. Conditions: After Crystal Growth (S = 15.4). An excerpt:
Characterization of Seed Crystals. Ritonavir seed crystals were characterized using scanning electron microscopy (SEM), powder X-ray diffraction analysis (PXRD), and differential scanning calorimetry (DSC). SEM was used to determine the size and shape of ritonavir crystals, while PXRD and DSC were used to evaluate the polymorph of the seed crystals. Ritonavir was used as received from the manufacturer, and prior to use, the seeds were sieved to a size below 250 p.m. Seed crystals used for SEM analysis were prepared by dispersing the seeds in water and equilibrating the water-seed crystal suspension for approximately 24 h. A few drops of the suspension were placed on a glass slide and dried overnight in a vacuum oven at room temperature for approximately 24 h. Before SEM imaging, the glass slides were mounted using double-sticky copper tape and sputter-coated with platinum for 60 s. SEM imaging was performed using an FEI NOVA nanoSEM field emission SEM using an Everhart-Thornley (ET) detector and a through-thelens detector (TLD). The following imaging parameters were used: 5 kV accelerating voltage, approximately 4-5 mm working distance, beam spot size of 3, 30 μm aperture, and 100-10,000× magnifications. The SEM images were analyzed using ImageJ, processing and analysis in Java (National Institutes of Health (NIH)). Several representative samples of seed crystals were obtained before and after crystal growth in the absence and presence of predissolved additive. For each sample, a total of 50 seeds were analyzed to ensure a representative sample, and the average aspect ratio of the crystals was estimated from the average length and width of the crystals.
The polymorphic form of the seed crystals after the crystal growth experiment was also confirmed to be Form II by PXRD. The average length, width, and aspect ratio of ritonavir seed crystals before and after the crystal growth experiment in the presence of the CAP Adp 0.85, Pn-IPAAmd, and CAP Adp 0.85/Pn-IPAAmd polymer combination at initial S values of 7.6 and 15.4 are summarized in Table 6.

A short description of data set [10]: Dynamic light scattering particle size of ritonavir during de-supersaturation. The data set is classed as physicochemical. Particulars: ritonavir 25 μg/mL. How it is done: Dynamic light scattering (DLS) was used to monitor changes in particle size as a function of time during de-supersaturation experiments. DLS experiments were performed using a Nano-Zetasizer (Nano-ZS) and its software, dispersion technology software (DTS). A 173° backscatter detector was used in order to minimize the signal from large dust particles or other large contaminants. A quartz flow-through cuvette, coupled with a pump was used for continuous sampling. […] Particle size experiments were performed in the absence and presence of pre-dissolved polymers. As an example, ritonavir was used at an initial concentration of 25 μg/mL with a polymer concentration of 50 μg/mL. The buffer solution was allowed to equilibrate at 37° C. prior to addition of solubilized ritonavir. Data collection began after generation of supersaturation. A stir-plate was used to stir the solution at a speed of 400 rpm.

For data set [11] the following is noted: cited from earlier work. This is another data set of the same source.
Data set [12] can be described thus: Formation of X-ray amorphous resveratrol-polymer dispersion by rotary evaporation. The data set is classed as physicochemical. Conditions: classification system of Van Eerdenbrugh et al. How it is done:
All mixtures were visually inspected to confirm that the resveratrol and the polymers were fully dissolved, and that the systems formed uniform one-phase solutions. […] The samples were then placed under vacuum for 24 h to remove any residual solvents. The obtained material was subsequently cryomilled in a liquid nitrogen bath for a total milling time of 4 min. Powder X-Ray Diffraction. Immediately after cryomilling, the samples were analyzed using a Shimadzu XRD-6000 (Shimadzu Corporation, Kyoto, Japan) equipped with a Cu-Kα source and set in Bragg-Brentano geometry between 5° and 35° 2θ at 8°/min with a 0.04° step size. Samples were also analyzed over time following the storage treatments listed above. […] Samples where sharp peaks were observed were deemed crystalline, and those samples that lacked sharp peaks were labeled X-ray amorphous. Physical mixtures of select resveratrol-polymer systems were made to provide a fully crystallized reference. The percent crystallized for certain samples was estimated from a calibration curve generated from analysis of the diffraction patterns of the different solid dispersions, spiked with increasing levels of crystalline resveratrol. […] The crystallinity of these calibration samples was measured immediately after preparation.

Data set [13] is described as follows: Crystal growth rate of celecoxib (seeded desupersaturation). The data set is classed as physicochemical. Particulars: supersaturation ratio of 1.2.
The nature of a further data set: physchem. Particulars: 37 °C, pH 6.8, aqueous buffer, thermodynamic from solid.
A short description of data set [14]: Crystal growth rate of efavirenz (seeded desupersaturation). The data set is classed as physicochemical. Particulars: supersaturation ratio of 1.2.
Setting [15] is: After Crystal Growth (S = 7.6), values from ref 31 / ref 38.
[16] abbreviates: After Crystal Growth (S = 7.6), values from ref 31 / ref 38, listed as RTV.
Where [17] appears, read: Before Crystal Growth, values from ref 31.

In brackets after ≈: the same amount, converted by molar mass. Several values for one entry are separate records, joined by “and”; a condition that tells them apart may be missing. Equal values may be shown once. Read-outs that look alike come from different tables or passages of the source.

As to `O=c1c(O)c(-c2ccc(O)c(O)c2)oc2cc(O)cc(O)c12` [Que, Quercetin], in [1], the “Que dissolution / release after 1 h” value came to 0.7%.
As to `O=c1oc2c(O)c(O)cc3c(=O)oc4c(O)c(O)cc1c4c23` [EA, Ellagic Acid], in [2], the “EA release after 24 h” value is on record as 7% and the “time of maximum EA release” value turned out to be 2 h. For the same compound, the “maximum EA release” value in data set [2] (25° C., EA 0.05 mg/mL) is on record as 11%. In addition, the aqueous solubility in data set [3] (pH 7.4) was 9.3 µg/mL (≈ 30.8 µM).
As to “poly(N-iso-propylacrylamide) [Pn-IPAAmd]”, in [4], the “Equilibrium solubility of efavirenz in the presence of polymer” value turned out to be 8.7 ± 0.07 µg/mL and the “Solubility of Ritonavir in the presence of polymer” value was 1.3 ± 0.01 µg/mL. Besides, the “Equilibrium solubility of ritonavir in the presence of polymer (Table 7)” value in data set [5] is 1.3 ± 0.01 µg/mL.
Regarding Ritonavir, the “calculated amorphous solubility with moisture sorption correction” value in data set [6] is 20.6 µg/mL. Besides, the “induction time of ritonavir” value in data set [7] is “approximately 119 minutes”. Also, the “initial bulk crystal growth rate of ritonavir” value in data set [8] (100 mM sodium phosphate buffer, initial 10 μg/mL, no polymer, first 2 min) amounted to 1.56 µg/mL/min. Further, the “normalized crystal growth rate of ritonavir” value in data set [8] (supersaturation ratio of 1.2) stood at 3.94 μg mL^−1 min^−1 m^−2. In addition, the aspect ratio in data set [9] was 12.1; in data set [11] (setting [15]), 8.8 and 7.7; in [11] (setting [16]), 8.8; in [11] (setting [17]), 7.7. In addition, the crystal morphology entry in [9], in data set [11] (setting [15]) and in data set [11] (setting [17]) was “needle-like” throughout. Moreover, the length is listed as 50.9 ± 14.4 μm in [9], 50.4 ± 18.6 μm in data set [11] (setting [15]) and 44.4 ± 15.2 μm in data set [11] (setting [17]). The width is recorded as 4.2 ± 1.2 μm in data set [9], 5.7±1.4 μm in data set [11] (setting [15]), 5.7 ± 1.4 μm in data set [11] (setting [16]) and 5.8 ± 1.9 μm in data set [11] (setting [17]). In addition, the “time particle size was maintained” value in data set [10] (no polymer) was ~100 min. The “size of ritonavir particles” value in data set [10] (polymer 50 μg/mL or none, pH 6.8, 37° C., initially formed particles) was 350-450 nm. Further, the “Equilibrium solubility of ritonavir, no polymer (Table 7)” value in [5] is 1.3 ± 0.10 µg/mL.
Regarding `C=CC(=O)O` [Acrylic acid], the pKa in data set [3] was 4.76.
In the case of `Oc1ccc(/C=C/c2cc(O)cc(O)c2)cc1` [Resveratrol], in data set [12], the “crystallization tendency during production” value is “rapid crystallizer”.
In the case of `Cc1ccc(-c2cc(C(F)(F)F)nn2-c2ccc(S(N)(=O)=O)cc2)cc1` [celecoxib], the “normalized crystal growth rate of celecoxib” value in data set [13] came to 18.20 μg mL^−1 min^−1 m^−2. The compound also had a thermodynamic solubility at 48 h in “physchem” of 1.5 µg/mL (≈ 3.93 µM).
For Poly vinylpyrrolidone K 29/32 [PVP], in data set [5], the “Equilibrium solubility of ritonavir in the presence of polymer (Table 7)” value is 1.2 ± 0.05 µg/mL.
Regarding `O=C1Nc2ccc(Cl)cc2[C@@](C#CC2CC2)(C(F)(F)F)O1` [efavirenz], in data set [14], the “normalized crystal growth rate of efavirenz” value stood at 59.32 μg mL^−1 min^−1 m^−2. The compound further returned a solubility (thermodynamic) at 48 h in “physchem” of 8.2 µg/mL (≈ 26 µM).

These data come from patent publication US20150004237A1, “CELLULOSE DERIVATIVES FOR INHIBITING CRYSTALLIZATION OF POORLY WATER-SOLUBLE DRUGS” (Virginia Tech Intellectual Properties, Inc., priority 2012, published 2015).
